The values below come from ChEMBL document CHEMBL1127579, “Novel, potent luteinizing hormone-releasing hormone antagonists with improved solubility in water” (1994).

Molecules are shown by their SMILES. Values after ≈ are worked out from the molar mass of the structure shown.

Holding throughout (type): functional
For test [1], the species on record is Rattus norvegicus. In words: Antiovulatory activity expressed as ratio of rats ovulated/total rats at a dose of 0.5 microg; 5/5.
The species named for test [2] is Rattus norvegicus. In words: Evaluated for histamine releasing activity.
The species named for test [3] is Rattus norvegicus. In words: Antiovulatory activity expressed as ratio of rats ovulated/total rats at a dose of 1.0 ug; […].
The species named for test [4] is Rattus norvegicus. In words: Antiovulatory activity expressed as ratio of rats ovulated/total rats at a dose of 0.5 microg; 2/9.
Test [5] is filed under the species Rattus norvegicus. In words: Antiovulatory activity expressed as ratio of rats ovulated/total rats at a dose of 1.0 ug; 1/6.
For test [6], the species on record is Rattus norvegicus. In words: Antiovulatory activity expressed as ratio of rats ovulated/total rats at a dose of 0.5 microg; 3/13.
The species entered for test [7] is Rattus norvegicus. In words: Antiovulatory activity expressed as ratio of rats ovulated/total rats at a dose of 0.5 microg; 6/6.
The species entered for test [8] is Rattus norvegicus. In words: Antiovulatory activity expressed as ratio of rats ovulated/total rats at a dose of 0.5 microg; 7/7.
The species named for test [9] is Rattus norvegicus. In words: Antiovulatory activity expressed as ratio of rats ovulated/total rats at a dose of 1.0 ug.
The species named for test [10] is Rattus norvegicus. In words: Antiovulatory activity expressed as ratio of rats ovulated/total rats at a dose of 0.25 microg; 6/8.
For test [11], the species on record is Rattus norvegicus. In words: Antiovulatory activity expressed as ratio of rats ovulated/total rats at a dose of 0.5 microg; 0/8.
The species entered for test [12] is Rattus norvegicus. In words: Antiovulatory activity expressed as ratio of rats ovulated/total rats at a dose of 0.5 microg; 3/5.
For test [13], the species on record is Rattus norvegicus. In words: Antiovulatory activity expressed as ratio of rats ovulated/total rats at a dose of 0.5 microg; 2/6.
Test [14] is filed under the species Rattus norvegicus. In words: Antiovulatory activity expressed as ratio of rats ovulated/total rats at a dose of 0.5 microg; 4/6.

As to `CC(C)C[C@H](NC(=O)[C@@H](CCCCNC(=O)c1ccc(N)nc1)NC(=O)[C@H](CCCCNC(=O)c1ccccn1)NC(=O)[C@@H](NC(=O)[C@@H](Cc1cccnc1)NC(=O)[C@@H](Cc1ccc(Cl)cc1)NC(=O)[C@H](N)Cc1ccc2ccccc2c1)[C@@H](C)O)C(=O)N[C@@H](CCCN=C(N)N)C(=O)N1CCC[C@H]1C(=O)N[C@H](C)C(=O)O`, in the test listed under Rattus norvegicus [1], the Ratio came to 5.

Consider `CC(=O)N[C@H](Cc1ccc2ccccc2c1)C(=O)N[C@H](Cc1ccc(Cl)cc1)C(=O)N[C@H](Cc1cccnc1)C(=O)N[C@@H](CO)C(=O)N[C@@H](CCCCNC(=O)c1cccnc1)C(=O)N[C@H](CCCCNC(=O)c1cnccn1)C(=O)N[C@@H](CC(C)C)C(=O)N[C@@H](CCCCN)C(=O)N1CCC[C@H]1C(=O)N[C@H](C)C(=O)O`, for which, in the test filed under Rattus norvegicus [2], the ED50 is 263 µg/mL (≈ 170 µM). Besides, the Ratio in the test filed under Rattus norvegicus [3] is 1; in the test listed under Rattus norvegicus [4] it was 2.

As for `CC(=O)N[C@H](Cc1ccc2ccccc2c1)C(=O)N[C@H](Cc1ccc(Cl)cc1)C(=O)N[C@H](Cc1cccnc1)C(=O)N[C@@H](CO)C(=O)N[C@@H](CCCCNC(=O)c1ccccn1)C(=O)N[C@H](CCCCNC(=O)c1nccnc1N)C(=O)N[C@@H](CC(C)C)C(=O)N[C@@H](CCCCNC(C)C)C(=O)N1CCC[C@H]1C(=O)N[C@H](C)C(=O)O`, the ED50 in the test listed under Rattus norvegicus [2] is 100 µg/mL (≈ 62.2 µM). Also, the Ratio in the test listed under Rattus norvegicus [5] was 1; in the test listed under Rattus norvegicus [6], 3.

On to `CC(=O)N[C@H](Cc1ccc2ccccc2c1)C(=O)N[C@H](Cc1ccc(Cl)cc1)C(=O)N[C@H](Cc1cccnc1)C(=O)N[C@@H](CO)C(=O)N[C@@H](CCCCNC(=O)c1ccccn1)C(=O)N[C@H](CCCCNC(=O)c1cnccn1)C(=O)N[C@@H](CC(C)C)C(=O)N[C@@H](CCCCN)C(=O)N1CCC[C@H]1C(=O)N[C@H](C)C(=O)O`, for which the “Number of rats ovulated” value in the test listed under Rattus norvegicus [7] came to 6.

`CC(=O)N[C@H](Cc1ccc2ccccc2c1)C(=O)N[C@H](Cc1ccc(Cl)cc1)C(=O)N[C@H](Cc1cccnc1)C(=O)N[C@@H](CO)C(=O)N[C@@H](CCCCNC(=O)c1ccccn1)C(=O)N[C@H](CCCCNC(=O)c1cccnc1N)C(=O)N[C@@H](CC(C)C)C(=O)N[C@@H](CCCN=C(N)N)C(=O)N1CCC[C@H]1C(=O)N[C@H](C)C(=O)O`: the “Number of rats ovulated” value in the test listed under Rattus norvegicus [8] is reported as 7.

On to `CC(=O)N[C@H](Cc1ccc2ccccc2c1)C(=O)N[C@H](Cc1ccc(Cl)cc1)C(=O)N[C@H](Cc1cccnc1)C(=O)N[C@@H](CO)C(=O)N[C@@H](CCCCNC(=O)c1ccc(N)nc1)C(=O)N[C@H](CCCCNC(=O)c1ccc(N)nc1)C(=O)N[C@@H](CC(C)C)C(=O)N[C@@H](CCCCNC(C)C)C(=O)N1CCC[C@H]1C(=O)N[C@H](C)C(=O)O`, for which, in the test filed under Rattus norvegicus [8], the “Number of rats ovulated” value worked out at 7.

Consider `CC(=O)N[C@H](Cc1ccc2ccccc2c1)C(=O)N[C@H](Cc1ccc(Cl)cc1)C(=O)N[C@H](Cc1cccnc1)C(=O)N[C@@H](CO)C(=O)N[C@@H](CCCCNC(=O)c1cccc(N)n1)C(=O)N[C@H](CCCCNC(=O)c1cccc(N)n1)C(=O)N[C@@H](CC(C)C)C(=O)N[C@@H](CCCN=C(N)N)C(=O)N1CCC[C@H]1C(=O)N[C@H](C)C(=O)O`, for which the “Number of rats ovulated” value in the test listed under Rattus norvegicus [7] amounted to 6.

Take `CC(=O)N[C@H](Cc1ccc2ccccc2c1)C(=O)N[C@H](Cc1ccc(Cl)cc1)C(=O)N[C@H](Cc1cccnc1)C(=O)N[C@@H](CO)C(=O)N[C@@H](CCCCNC(=O)c1ccccn1)C(=O)N[C@H](CCCCNC(=O)c1nccnc1N)C(=O)N[C@@H](CC(C)C)C(=O)N[C@@H](CCCN=C(N)N)C(=O)N1CCC[C@H]1C(=O)N[C@H](C)C(=O)O`: the “Number of rats ovulated” value in the test listed under Rattus norvegicus [7] was determined as 6.

Regarding `CC(=O)N[C@H](Cc1ccc2ccccc2c1)C(=O)N[C@H](Cc1ccc(Cl)cc1)C(=O)N[C@H](Cc1cccnc1)C(=O)N[C@@H](CO)C(=O)N[C@@H](CCCCNC(=O)c1ccccn1)C(=O)N[C@H](CCCNC(=O)c1ccc(N)nc1)C(=O)N[C@@H](CC(C)C)C(=O)N[C@@H](CCCN=C(N)N)C(=O)N1CCC[C@H]1C(=O)N[C@H](C)C(=O)O`, the ED50 in the test listed under Rattus norvegicus [2] was 100 µg/mL (≈ 63.3 µM). The Ratio in the test listed under Rattus norvegicus [9] came out at 0; in the test listed under Rattus norvegicus [10], 6; in the test filed under Rattus norvegicus [11] it was 0.

Consider `CC(C)C[C@H](NC(=O)[C@@H](CCCCNC(=O)c1ccc(N)nc1)NC(=O)[C@H](Cc1ccc(O)cc1)NC(=O)[C@H](CO)NC(=O)[C@@H](Cc1cccnc1)NC(=O)[C@@H](Cc1ccc(Cl)cc1)NC(=O)[C@H](N)Cc1ccc2ccccc2c1)C(=O)N[C@@H](CCCN=C(N)N)C(=O)N1CCC[C@H]1C(=O)N[C@H](C)C(=O)O`, for which the Ratio in the test filed under Rattus norvegicus [12] was found to be 3.

As to `CC(=O)N[C@H](Cc1ccc2ccccc2c1)C(=O)N[C@H](Cc1ccc(Cl)cc1)C(=O)N[C@H](Cc1cccnc1)C(=O)N[C@@H](CO)C(=O)N[C@@H](CCCCNC(=O)c1ccccn1)C(=O)N[C@H](CCCCNC(=O)c1cccc(N)n1)C(=O)N[C@@H](CC(C)C)C(=O)N[C@@H](CCCN=C(N)N)C(=O)N1CCC[C@H]1C(=O)N[C@H](C)C(=O)O`, in the test listed under Rattus norvegicus [13], the Ratio is 2.

Consider `CC(=O)N[C@H](Cc1ccc2ccccc2c1)C(=O)N[C@H](Cc1ccc(Cl)cc1)C(=O)N[C@H](Cc1cccnc1)C(=O)N[C@@H](CO)C(=O)N[C@@H](CCCNC(=O)c1cnccn1)C(=O)N[C@H](CCCCNC(=O)c1ccc(N)nc1)C(=O)N[C@@H](CC(C)C)C(=O)N[C@@H](CCCN=C(N)N)C(=O)N1CCC[C@H]1C(=O)N[C@H](C)C(=O)O`, for which the “Number of rats ovulated” value in the test listed under Rattus norvegicus [7] was found to be 6.

Turning to `CC(=O)N[C@H](Cc1ccc2ccccc2c1)C(=O)N[C@H](Cc1ccc(Cl)cc1)C(=O)N[C@H](Cc1cccnc1)C(=O)N[C@@H](CO)C(=O)N[C@@H](CCCCNC(=O)c1cccc(N)n1)C(=O)N[C@H](CCCCNC(=O)c1cccc(N)n1)C(=O)N[C@@H](CC(C)C)C(=O)N[C@@H](CCCCNC(C)C)C(=O)N1CCC[C@H]1C(=O)N[C@H](C)C(=O)O`, the “Number of rats ovulated” value in the test listed under Rattus norvegicus [8] is 7.

As for `CC(=O)N[C@H](Cc1ccc2ccccc2c1)C(=O)N[C@H](Cc1ccc(Cl)cc1)C(=O)N[C@H](Cc1cccnc1)C(=O)N[C@@H](CO)C(=O)N[C@@H](CCCCNC(=O)c1ccccn1)C(=O)N[C@H](CCCCNC(=O)c1ncccc1N)C(=O)N[C@@H](CC(C)C)C(=O)N[C@@H](CCCCNC(C)C)C(=O)N1CCC[C@H]1C(=O)N[C@H](C)C(=O)O`, the Ratio in the test listed under Rattus norvegicus [14] turned out to be 4.

Regarding `CC(=O)N[C@H](Cc1ccc2ccccc2c1)C(=O)N[C@H](Cc1ccc(Cl)cc1)C(=O)N[C@H](Cc1cccnc1)C(=O)N[C@@H](CO)C(=O)N[C@@H](CCCCNC(=O)c1cccnc1N)C(=O)N[C@H](CCCCNC(=O)c1cccnc1N)C(=O)N[C@@H](CC(C)C)C(=O)N[C@@H](CCCCNC(C)C)C(=O)N1CCC[C@H]1C(=O)N[C@H](C)C(=O)O`, the “Number of rats ovulated” value in the test filed under Rattus norvegicus [8] amounted to 7.

`CNC[C@@H](NC(=O)[C@@H]1CCCN1C(=O)[C@H](CCCN=C(N)N)NC(=O)[C@H](CC(C)C)NC(=O)[C@@H](CCCCNC(=O)c1ccc(N)nc1)NC(=O)[C@H](CCCCNC(=O)c1ccccn1)NC(=O)[C@H](CO)NC(=O)[C@@H](Cc1cccnc1)NC(=O)[C@@H](Cc1ccc(Cl)cc1)NC(=O)[C@H](N)Cc1ccc2ccccc2c1)C(=O)O` gave an ED50 in the test filed under Rattus norvegicus [2] of 31 µg/mL (≈ 19.6 µM). In addition, the Ratio came out at 0 in the test filed under Rattus norvegicus [9], 6 in the test filed under Rattus norvegicus [10] and 0 in the test listed under Rattus norvegicus [11].

`CC(=O)N[C@H](Cc1ccc2ccccc2c1)C(=O)N[C@H](Cc1ccc(Cl)cc1)C(=O)N[C@H](Cc1cccnc1)C(=O)N[C@@H](CO)C(=O)N[C@@H](CCCCNC(=O)c1ccc(N)nc1)C(=O)N[C@H](CCCCNC(=O)c1ccc(N)nc1)C(=O)N[C@@H](CC(C)C)C(=O)N[C@@H](CCCN=C(N)N)C(=O)N1CCC[C@H]1C(=O)N[C@H](C)C(=O)O`: in the test filed under Rattus norvegicus [7], the “Number of rats ovulated” value is reported as 6.

Turning to `CC(=O)N[C@H](Cc1cnc2ccccc2c1)C(=O)N[C@H](Cc1ccc(Cl)cc1)C(=O)N[C@H](Cc1cccnc1)C(=O)N[C@@H](CO)C(=O)N[C@@H](CCCNC(=O)c1cnccn1)C(=O)N[C@H](CCCNC(=O)c1ccc(N)nc1)C(=O)N[C@@H](CC(C)C)C(=O)N[C@@H](CCCN=C(N)N)C(=O)N1CCC[C@H]1C(=O)N[C@H](C)C(=O)O`, in the test filed under Rattus norvegicus [1], the Ratio was determined as 5.

As to `CC(=O)N[C@H](Cc1ccc2ccccc2c1)C(=O)N[C@H](Cc1ccc(Cl)cc1)C(=O)N[C@H](Cc1cccnc1)C(=O)N[C@@H](CO)C(=O)N[C@@H](CCCCNC(=O)c1nccnc1N)C(=O)N[C@H](CCCCNC(=O)c1nccnc1N)C(=O)N[C@@H](CC(C)C)C(=O)N[C@@H](CCCN=C(N)N)C(=O)N1CCC[C@H]1C(=O)N[C@H](C)C(=O)O`, the Ratio in the test listed under Rattus norvegicus [14] is given as 4.

Regarding `C[C@@H](NC(=O)[C@@H]1CCCN1C(=O)[C@H](CCCN=C(N)N)NC(=O)[C@H](Cc1c[nH]cn1)NC(=O)[C@@H](CCCCNC(=O)c1ccc(N)nc1)NC(=O)[C@H](CCCCNC(=O)c1ccccn1)NC(=O)[C@H](CO)NC(=O)[C@@H](Cc1cccnc1)NC(=O)[C@@H](Cc1ccc(Cl)cc1)NC(=O)[C@H](N)Cc1ccc2ccccc2c1)C(=O)O`, in the test filed under Rattus norvegicus [7], the “Number of rats ovulated” value is 6.

Turning to `CC(=O)N[C@H](Cc1ccc2ccccc2c1)C(=O)N[C@H](Cc1ccc(Cl)cc1)C(=O)N[C@H](Cc1cccnc1)C(=O)N[C@@H](CO)C(=O)N[C@@H](CCCCNC(=O)c1cnccn1)C(=O)N[C@H](CCCCNC(=O)c1cccnc1)C(=O)N[C@@H](CC(C)C)C(=O)N[C@@H](CCCCN)C(=O)N1CCC[C@H]1C(=O)N[C@H](C)C(=O)O`, in the test filed under Rattus norvegicus [7], the “Number of rats ovulated” value was 6.

As to `CC(=O)N[C@H](Cc1ccc2ccccc2c1)C(=O)N[C@H](Cc1ccc(Cl)cc1)C(=O)N[C@H](Cc1cccnc1)C(=O)N[C@@H](CO)C(=O)N[C@@H](CCCCNC(=O)c1cccnc1N)C(=O)N[C@H](CCCCNC(=O)c1cccnc1N)C(=O)N[C@@H](CC(C)C)C(=O)N[C@@H](CCCN=C(N)N)C(=O)N1CCC[C@H]1C(=O)N[C@H](C)C(=O)O`, in the test filed under Rattus norvegicus [7], the “Number of rats ovulated” value stood at 6.
